38 compounds from patent publication US9718825B2, “N-(4-(azaindazol-6-yl)-phenyl)-sulfonamides and their use as pharmaceuticals” (priority 2013, dated 2017) can be followed below.

As usually defined, the IC50 is the concentration that inhibits the measured activity by half.

Assay [1] deals with recombinant human SGK-1 enzyme (Homo sapiens, UniProt O00141). Nature of the assay: Enzymatic activity assay: SGK-1 substrate peptide phosphorylation (Caliper lab-chip mobility shift). Type of assay: biochemical. The conditions noted are these: peptide substrate 1 μM, ATP 10 μM, 60 min at 37° C., read-out: IC50 values for inhibition of SGK-1 enzymatic activity. The method, then:
In one of the cellular assays, the SGK-1 dependent phosphorylation of glycogen synthase kinase 3beta (GSK3beta) in U2OS cells was measured, in another one, a functional electrophysiological assay, the SGK-1 dependent activation of epithelial Na^+ channel (ENaC) currents in A6 cell monolayers, and in another one chondrocyte hypertrophic differentiation in mouse chondrogenic ATDC5 cells.
A) Enzymatic Activity Assay
For the determination of the compound dose response, a 10 mM DMSO stock solution was diluted and tested in a ten-point, three-fold dilution series run in duplicate beginning at 30 μM final concentration. Data were analyzed using a four-parameter curve fit with a fixed minimum and maximum experimentally defined as the average positive and negative controls on each plate.

Assay [2] has as its system SGK-1 dependent phosphorylation of GSK3beta in U2OS cells. Nature of the assay: SGK-1 dependent phosphorylation of GSK3beta in U2OS cells overexpressing recombinant SGK-1 and GSK3beta. In kind it is cell-based, human. The note with it: U2OS cells, 6 h incubation, ratio of phosphorylated GSK3beta to total GSK3beta, read-out: IC50 values for inhibition of SGK-1 dependent phosphorylation of GSK3beta in U2OS cells. The method, then:
B) Determination of the Effect on SGK-1 Dependent Phosphorylation of GSK3beta in U2OS Cells
U2OS cells were cultured in 1:1 Dulbecco modified Eagle medium/Ham's F12 and 10% heat-inactivated fetal calf serum (FCS Gold) at 37° C., 7% CO2 and 95% relative humidity. […] Cell suspension mixed with BacMam viruses was seeded in 96 well pCLEAR plates (Greiner) at 3×10^4 cells per well in 250 μl medium. […] 1 μl of a solution of the test compound at 250×final concentration was added. Cells are incubated at 37° C., 7% CO2 and 95% relative humidity. […] After removing the fixation solution, cells were permeabilised by adding 200 μl PBT (0.2% Triton X-100 in PBS) per well for 5 min. After removing PBT, cells were blocked by adding 200 μl of blocking solution (1% bovine serum albumine in PBS) per well. Blocking solution was removed and 50 μl of primary antibody (rabbit anti-phospho-GSK-3beta (Ser9), and mouse anti-GSK-3beta) were added for 1 h. […] After washing the cells 3 times with PBS, 200 μl of PBS were added. Fluorescence signals were measured with the ImageXpress MICRO (Molecular Devices).

Like-named read-outs stand apart in the source and are kept apart here.

recombinant human SGK-1 enzyme, sequence (O00141 whole entry, looked up): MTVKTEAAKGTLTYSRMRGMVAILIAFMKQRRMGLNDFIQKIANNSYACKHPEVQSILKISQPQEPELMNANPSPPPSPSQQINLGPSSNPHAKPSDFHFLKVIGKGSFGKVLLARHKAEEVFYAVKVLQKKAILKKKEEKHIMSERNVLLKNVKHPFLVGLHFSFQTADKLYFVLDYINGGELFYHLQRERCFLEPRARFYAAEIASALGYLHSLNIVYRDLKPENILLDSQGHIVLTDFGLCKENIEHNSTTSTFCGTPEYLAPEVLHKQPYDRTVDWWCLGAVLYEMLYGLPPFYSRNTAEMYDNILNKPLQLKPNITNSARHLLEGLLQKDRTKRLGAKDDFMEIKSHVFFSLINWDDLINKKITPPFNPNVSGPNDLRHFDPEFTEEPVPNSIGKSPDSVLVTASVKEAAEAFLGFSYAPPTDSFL

Turning to `Cc1n[nH]c2nc(-c3ccc(NS(=O)(=O)c4ccccc4F)cc3)nc(OCC3CNCCO3)c12` (centres unmarked) [Example 289], the IC50 in assay [1] is 23 nM; in assay [2] it was 200 nM.

`Cc1ccc(F)c(S(=O)(=O)Nc2ccc(-c3nc(OC4CCNCC4F)c4c(C)n[nH]c4n3)cc2)c1` (centres unmarked) [Example 298]: the figures for the IC50 in assay [1] and in assay [2] were 2.3 nM and 43 nM, respectively.

On to `N#Cc1c(Cl)cccc1S(=O)(=O)Nc1ccc(-c2ncc3c(N)n[nH]c3n2)cc1` [Example 456], for which the IC50 came to 6.2 nM in assay [1] and 8900 nM in assay [2].

`COc1ccc(F)c(S(=O)(=O)Nc2ccc(-c3nc(OC4CCC(O)CC4)c4cn[nH]c4n3)cc2)c1` (centres unmarked) [Example 133]: the concentration for half-maximal inhibition (IC50) in assay [1] was < 1.5 nM; in assay [2] it was 260 nM.

On to `COCCc1nc(-c2ccc(NS(=O)(=O)c3cc(Cl)ccc3F)cc2)nc2[nH]nc(N)c12` [Example 506], for which the results for the IC50 in assay [1] and in assay [2] were 110 nM and 670 nM, respectively.

For the compound `CC(C)COc1nc(-c2ccc(NS(=O)(=O)c3cccc(F)c3Cl)cc2)nc2[nH]nc(N)c12` [Example 324], the IC50 in assay [1] and in assay [2] was 330 nM throughout.

`O=S(=O)(Nc1ccc(-c2nc(O[C@H]3CCCC(O)C3)c3cn[nH]c3n2)cc1)c1cc(Cl)ccc1Cl` (some centres unmarked) [Example 85]: the results for the IC50 in assay [1] and in assay [2] were 4.1 nM and 1500 nM, respectively.

With `O=S(=O)(Nc1ccc(-c2nc(N3CCNCC3)c3cn[nH]c3n2)cc1)c1cc(Cl)ccc1Cl` [Example 17], the IC50 in assay [1] is < 1.2 nM; in assay [2] it was 810 nM.

With `Cc1ccc(F)c(S(=O)(=O)Nc2ccc(-c3nc(OCC4CNCCO4)c4c(C)n[nH]c4n3)cc2)c1` (centres unmarked) [Example 288], the values for the IC50 in assay [1] and in assay [2] were 2.3 nM and 61 nM, respectively.

Take `CC(C)(O)CCCOc1nc(-c2ccc(NS(=O)(=O)c3cc(Cl)ccc3F)cc2)nc2[nH]ncc12` [Example 86]: the IC50 was found to be 11 nM in assay [1] and 1800 nM in assay [2].

With `COc1ccc(F)c(S(=O)(=O)Nc2ccc(-c3nc(OC4CNC4)c4cn[nH]c4n3)cc2)c1` [Example 192], the IC50 was 2.8 nM in assay [1] and 140 nM in assay [2].

As to `COc1nc(-c2ccc(NS(=O)(=O)c3cc(Cl)ccc3Cl)cc2)nc2[nH]ncc12` [Example 139], the IC50 in assay [1] was determined as 82 nM; in assay [2], 5500 nM.

Take `Cc1n[nH]c2nc(-c3ccc(NS(=O)(=O)c4cc(Cl)ccc4F)cc3)ncc12` [Example 10]: the IC50 in assay [1] was < 1.2 nM; in assay [2], 430 nM.

For the compound `CC(C)Oc1nc(-c2ccc(NS(=O)(=O)c3cc(Cl)ccc3Cl)cc2)nc2[nH]nc(N)c12` [Example 335], the IC50 in assay [1] is 8.3 nM; in assay [2] it was 350 nM.

For the compound `Cc1n[nH]c2nc(-c3ccc(NS(=O)(=O)c4ccccc4F)cc3)nc(OC3CCCNC3)c12` (centres unmarked) [Example 323], the IC50 in assay [1] was 12 nM; in assay [2], 100 nM.

As for `COc1nc(-c2ccc(NS(=O)(=O)c3cc(Cl)ccc3F)cc2)nc2[nH]ncc12` [Example 136], the IC50 in assay [1] is 41 nM; in assay [2] it was 1700 nM.

For the compound `Nc1n[nH]c2nc(-c3ccc(NS(=O)(=O)c4ccccc4F)cc3)ncc12` [Example 517], the IC50 is 420 nM in assay [1] and 170 nM in assay [2].

On to `COc1ccc(Cl)c(S(=O)(=O)Nc2ccc(-c3nc(OC4CCC(O)CC4)c4cn[nH]c4n3)cc2)c1` (centres unmarked) [Example 90], for which the IC50 in assay [1] was 2.2 nM; in assay [2], 200 nM.

`O=S(=O)(Nc1ccc(-c2nc(OCC3CNCCO3)c3cn[nH]c3n2)cc1)c1cc(Cl)ccc1F` (centres unmarked) [Example 305]: the IC50 in assay [1] amounted to 10 nM; in assay [2] it was 89 nM.

As for `O=S(=O)(Nc1ccc(-c2nc(OC3CCC(O)C3)c3cn[nH]c3n2)cc1)c1cc(Cl)ccc1F` (centres unmarked) [Example 75], the results for the IC50 in assay [1] and in assay [2] were 4.8 nM and 250 nM, respectively.

On to `Cc1ccc(F)c(S(=O)(=O)Nc2ccc(-c3nc(N4CC(CO)C4)c4cn[nH]c4n3)cc2)c1` [Example 109], for which the values for the IC50 in assay [1] and in assay [2] were 16 nM and 4600 nM, respectively.

Take `Cc1n[nH]c2nc(-c3ccc(NS(=O)(=O)c4cc(Cl)ccc4Cl)cc3)nc(OCC3CNCCO3)c12` (centres unmarked) [Example 313]: the IC50 in assay [1] worked out at 2 nM; in assay [2], 47 nM.

`O=C(Nc1n[nH]c2nc(-c3ccc(NS(=O)(=O)c4cc(Cl)ccc4Cl)cc3)ncc12)C1CCNCC1` [Example 546, N-[6-[4-[(2,5-Dichlorophenyl)sulfonylamino]phenyl]-1H-pyrazolo[3,4-d]pyrimidin-3-yl]piperidine-4-carboxamide]: the half-maximal inhibitory concentration (IC50) in assay [2] (Homo sapiens) was determined as 1100 nM.

For the compound `Cc1nc(-c2ccc(NS(=O)(=O)c3cc(F)c(F)c(F)c3)cc2)nc2[nH]nc(N)c12` [Example 165], the IC50 in assay [1] amounted to 110 nM; in assay [2], 970 nM.

`O=S(=O)(Nc1ccc(-c2nc(C3CC3)c3cn[nH]c3n2)cc1F)c1cc(Cl)ccc1F` [Example 443]: the IC50 in assay [1] was determined as 94 nM; in assay [2], 320 nM.

In the case of `Cc1ccc(C#N)c(S(=O)(=O)Nc2ccc(-c3nc(OCC(F)(F)F)c4c(N)n[nH]c4n3)cc2)c1` [Example 193], the IC50 was found to be 2 nM in assay [1] and 160 nM in assay [2].

Turning to `O=S(=O)(Nc1ccc(-c2nc(OC3CCC(O)C3)c3cn[nH]c3n2)cc1)c1cc(Cl)ccc1Cl` (centres unmarked) [Example 60], the figures for the IC50 in assay [1] and in assay [2] were 4 nM and 480 nM, respectively.

Consider `Cc1nc(-c2ccc(NS(=O)(=O)c3ccccc3F)cc2)nc2[nH]nc(N)c12` [Example 169], for which the figures for the IC50 in assay [1] and in assay [2] were 110 nM and 250 nM, respectively.

On to `Cc1nc(-c2ccc(NS(=O)(=O)c3cc(Cl)ccc3Cl)cc2)nc2[nH]nc(NC(=O)C3CCOCC3)c12` [Example 545, N-[6-[4-[(2,5-Dichlorophenyl)sulfonylamino]phenyl]-4-methyl-1H-pyrazolo[3,4-d]pyrimidin-3-yl]tetrahydropyran-4-carboxamide], for which the IC50 in assay [2] (Homo sapiens) turned out to be 73 nM.

For the compound `Cc1nc(-c2ccc(NS(=O)(=O)c3cc(Cl)ccc3F)cc2)nc2[nH]ncc12` [Example 6, 5-Chloro-2-fluoro-N-[4-(4-methyl-1H-pyrazolo[3,4-d]pyrimidin-6-yl)-phenyl]-benzenesulfonamide], the IC50 in assay [2] (Homo sapiens) stood at 2600 nM.

On to `Cc1nc(-c2ccc(NS(=O)(=O)c3cc(Cl)ccc3Cl)cc2)nc2[nH]nc(NC(=O)C3CC(O)C3)c12` (centres unmarked) [Example 536, 3-Hydroxy-cyclobutanecarboxylic acid {6-[4-(2,5-dichloro-benzenesulfonylamino)-phenyl]-4-methyl-1H-pyrazolo[3,4-d]pyrimidin-3-yl}-amide], for which the IC50 in assay [2] (Homo sapiens) worked out at 3100 nM.

In the case of `Cc1n[nH]c2nc(-c3ccc(NS(=O)(=O)c4cc(Cl)c(F)cc4F)cc3)ncc12` [Example 449, 5-Chloro-2,4-difluoro-N-[4-(3-methyl-1H-pyrazolo[3,4-d]pyrimidin-6-yl)-phenyl]-benzenesulfonamide], the IC50 in assay [2] (Homo sapiens) was determined as 4900 nM.

Turning to `COc1ccc(Cl)c(S(=O)(=O)Nc2ccc(-c3ncc4c(C)n[nH]c4n3)cc2F)c1` [Example 533, 2-Chloro-N-[2-fluoro-4-(3-methyl-1H-pyrazolo[3,4-d]pyrimidin-6-yl)-phenyl]-5-methoxy-benzenesulfonamide], the IC50 in assay [2] (Homo sapiens) was 1800 nM.

`Cc1ccc(C#N)c(S(=O)(=O)Nc2ccc(-c3cc4[nH]nc(N)c4cn3)cc2)c1` [Example 553, N-[4-(3-Amino-1H-pyrazolo[4,3-c]pyridin-6-yl)phenyl]-2-cyano-5-methyl-benzenesulfonamide]: the IC50 in assay [2] (Homo sapiens) stood at 6400 nM.

Take `Nc1n[nH]c2nc(-c3ccc(NS(=O)(=O)c4cc(Cl)ccc4F)cc3)nc(C(F)(F)F)c12` [Example 568, N-[4-(3-Amino-4-trifluoromethyl-1H-pyrazolo[3,4-d]pyrimidin-6-yl)-phenyl]-5-chloro-2-fluoro-benzenesulfonamide]: the IC50 in assay [2] (Homo sapiens) was 170 nM.

Regarding `Nc1n[nH]c2nc(-c3ccc(NS(=O)(=O)c4cc(Cl)c(F)cc4F)cc3)ncc12` [Example 445, N-[4-(3-Amino-1H-pyrazolo[3,4-d]pyrimidin-6-yl)-phenyl]-5-chloro-2,4-difluoro-benzenesulfonamide], the IC50 in assay [2] (Homo sapiens) worked out at 340 nM.

As to `Cc1nc(-c2ccc(NS(=O)(=O)c3cc(Cl)ccc3Cl)cc2)nc2[nH]nc(NCC3CCOCC3)c12` [Example 547, 2,5-Dichloro-N-(4-{4-methyl-3-[(tetrahydro-pyran-4-ylmethyl)-amino]-1H-pyrazolo[3,4-d]pyrimidin-6-yl}-phenyl)-benzenesulfonamide], the IC50 in assay [2] (Homo sapiens) came to 4000 nM.

For the compound `CC(C)Oc1nc(-c2ccc(NS(=O)(=O)c3cc(Cl)ccc3F)c(F)c2)nc2[nH]nc(N)c12` [Example 444, N-[4-(3-Amino-4-isopropoxy-1H-pyrazolo[3,4-d]pyrimidin-6-yl)-2-fluoro-phenyl]-5-chloro-2-fluoro-benzenesulfonamide], in assay [2] (Homo sapiens), the IC50 was 50 nM.
